Reference: patent publication US11485742B2, “2-azaspiro[3.4]octane derivatives as M4 agonists” (NOVARTIS AG, priority 2019, dated 2022)

How the values were obtained:
Type in all cases: cell-based
[1] = target: T1, Cloned human M1 receptor (CHRM1) (Homo sapiens, UniProt P11229); assay: CHRM1 Ca++ Flux Assay (HEK293 M1 cells, agonist mode); conditions: for M1 FDSS PA % / Emax: Percent Activity (PA); for EC50: geometric mean if tested more than once, read-out: M1 FDSS EC50; for Emax: read-out: M1 FDSS PA %
T1 construct: expressed in transfected cells; host or cells: HEK293
T1 sequence (P11229 1-460): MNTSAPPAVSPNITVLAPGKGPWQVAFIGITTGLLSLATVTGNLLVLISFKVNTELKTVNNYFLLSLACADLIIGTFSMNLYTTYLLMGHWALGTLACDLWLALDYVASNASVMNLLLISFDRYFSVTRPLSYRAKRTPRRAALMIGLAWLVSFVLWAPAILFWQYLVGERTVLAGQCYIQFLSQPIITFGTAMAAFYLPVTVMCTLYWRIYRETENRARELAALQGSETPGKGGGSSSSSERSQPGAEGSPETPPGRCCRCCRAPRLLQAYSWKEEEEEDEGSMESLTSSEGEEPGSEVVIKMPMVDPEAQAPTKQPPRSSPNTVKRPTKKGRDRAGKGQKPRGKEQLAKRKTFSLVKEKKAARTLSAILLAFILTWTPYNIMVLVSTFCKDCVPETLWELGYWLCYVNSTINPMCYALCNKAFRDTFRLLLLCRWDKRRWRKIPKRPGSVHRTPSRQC
In short: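 In agonist mode, compound-induced intracellular Ca++ mobilization was recorded for 3 min by fluorescent imager. The cells were HEK293 stably expressing cloned human CHRM1, in Ca/Mg-free HBSS with 20 mM HEPES. Triplicate 11-point dose-responses were fitted by four-parameter regression and normalized to the carbachol EC100 response.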

[2] = target: T2, human cloned CHRM3 receptor (Homo sapiens, UniProt P20309); assay: CHRM3 Ca++ Flux Assay (M3_CHO cells, agonist mode); conditions: for M3 FDSS PA % / Emax: Percent Activity (PA) measured to EC100 of Carbachol; for EC50: agonist mode, geometric mean if tested more than once, read-out: M3 FDSS EC50; for Emax: read-out: M3 FDSS PA %
T2 construct: expressed in transfected cells; host or cells: CHO-K1 (M3_CHO)
T2 sequence (P20309 whole entry): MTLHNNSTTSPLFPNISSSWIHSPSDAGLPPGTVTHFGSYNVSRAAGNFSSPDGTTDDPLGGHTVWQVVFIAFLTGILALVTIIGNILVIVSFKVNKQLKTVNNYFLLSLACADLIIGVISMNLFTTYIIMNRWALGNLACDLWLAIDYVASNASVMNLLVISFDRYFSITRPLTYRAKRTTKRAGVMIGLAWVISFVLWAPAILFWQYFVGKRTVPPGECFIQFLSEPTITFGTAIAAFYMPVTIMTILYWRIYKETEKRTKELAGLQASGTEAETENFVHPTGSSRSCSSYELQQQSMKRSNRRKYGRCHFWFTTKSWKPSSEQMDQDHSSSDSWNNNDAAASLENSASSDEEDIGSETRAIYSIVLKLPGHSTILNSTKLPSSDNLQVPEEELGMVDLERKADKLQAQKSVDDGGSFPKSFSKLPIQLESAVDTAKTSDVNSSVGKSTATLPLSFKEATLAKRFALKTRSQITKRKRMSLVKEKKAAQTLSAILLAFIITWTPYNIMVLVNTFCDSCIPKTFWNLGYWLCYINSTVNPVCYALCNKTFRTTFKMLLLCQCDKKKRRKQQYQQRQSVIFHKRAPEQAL
In short: (§1)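 Agonist-mode calcium mobilisation: compounds, 11 concentrations in triplicate, applied to stable M3_CHO or M5_CHO cells loaded with Ca++ dye, fluorescence followed 3 min. Efficacy expressed against carbachol EC100; EC curves by four-parameter nonlinear regression, geometric mean across independent runs.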

[3] = target: T3, human cloned CHRM5 receptor (Homo sapiens, UniProt P08912); assay: CHRM5 Ca++ Flux Assay (M5_CHO cells, agonist mode); conditions: for M5 FDSS PA % / Emax: Percent Activity (PA) measured to EC100 of Carbachol; for EC50: agonist mode, geometric mean if tested more than once, read-out: M5 FDSS EC50; for Emax: read-out: M5 FDSS PA %
T3 construct: expressed in transfected cells; host or cells: CHO (M5_CHO)
T3 sequence (P08912 1-532): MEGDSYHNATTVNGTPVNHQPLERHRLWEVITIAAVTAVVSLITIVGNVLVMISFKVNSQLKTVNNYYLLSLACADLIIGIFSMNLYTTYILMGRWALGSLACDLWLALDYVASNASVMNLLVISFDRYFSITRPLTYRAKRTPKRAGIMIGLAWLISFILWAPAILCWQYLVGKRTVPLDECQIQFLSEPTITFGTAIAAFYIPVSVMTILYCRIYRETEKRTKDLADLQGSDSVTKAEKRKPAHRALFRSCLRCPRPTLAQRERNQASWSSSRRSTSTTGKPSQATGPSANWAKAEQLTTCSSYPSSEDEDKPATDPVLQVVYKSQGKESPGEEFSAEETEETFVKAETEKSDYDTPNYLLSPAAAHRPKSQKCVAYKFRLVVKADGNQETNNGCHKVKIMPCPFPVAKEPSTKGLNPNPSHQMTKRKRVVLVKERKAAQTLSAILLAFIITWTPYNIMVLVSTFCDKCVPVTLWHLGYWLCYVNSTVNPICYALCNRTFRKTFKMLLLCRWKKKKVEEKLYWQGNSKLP
In short: as §1

Structure (SMILES) | M1 FDSS PA % [1] [%] | EC50 [1] [µM] | M3 FDSS PA % [2] [%] | EC50 [2] [µM] | M5 FDSS PA % [3] [%] | EC50 [3] [µM] | Emax [1] [%] | Emax [2] [%] | Emax [3] [%]
O[C@H]1CC[C@@H](c2ccc(F)cc2C2CCN([C@@H]3COC4(C3)CN(c3nnco3)C4)CC2)CC1 (single isomer, unassigned) [Example 3H, (1R,4s)-4-(2-(1-((S)-2-(1,3,4-oxadiazol-2-yl)-5-oxa-2-azaspiro[3.4]octan-7-yl)piperidin-4-yl)-4-fluorophenyl)cyclohexan-1-ol or (1S,4r)-4-(2-(1-((S)-2-(1,3,4-oxadiazol-2-yl)-5-oxa-2-azaspiro[3.4]octan-7-yl)piperidin-4-yl)-4-fluorophenyl)cyclohexan-1-ol] | 84 | 2.41 | 20 | 10.7 | 0 | > 25 | – | – | –
Fc1ccc(OC2COC2)c(C2CCN([C@@H]3COC4(C3)CN(c3ncco3)C4)CC2)c1 [Example 4A, (S)-7-(4-(5-fluoro-2-(oxetan-3-yloxy)phenyl)piperidin-1-yl)-2-(oxazol-2-yl)-5-oxa-2-azaspiro[3.4]octane] | – | 0.234 | – | > 25 | – | > 25 | 84 | 0 | 0
CC(C)(O)[C@H]1C[C@@H](Oc2ccc(F)cc2C2CCN([C@@H]3COC4(C3)CN(c3ncco3)C4)CC2)C1 (single isomer, unassigned) [Example 4T, 2-((1R,3s)-3-(4-fluoro-2-(1-((S)-2-(oxazol-2-yl)-5-oxa-2-azaspiro[3.4]octan-7-yl)piperidin-4-yl)phenoxy)cyclobutyl)propan-2-ol or 2-((1S,3r)-3-(4-fluoro-2-(1-((S)-2-(oxazol-2-yl)-5-oxa-2-azaspiro[3.4]octan-7-yl)piperidin-4-yl)phenoxy)cyclobutyl)propan-2-ol] | 63 | 0.909 | 0 | > 25 | 0 | > 25 | – | – | –
CC(C)(O)COc1ccc(F)cc1C1CCN([C@@H]2COC3(C2)CN(c2ncns2)C3)CC1 [Example 5C, (S)-1-(2-(1-(2-(1,2,4-thiadiazol-5-yl)-5-oxa-2-azaspiro[3.4]octan-7-yl)piperidin-4-yl)-4-fluorophenoxy)-2-methylpropan-2-ol] | – | 1.6 | – | > 25 | – | > 25 | 60 | 0 | 4
c1ccc([C@@H]2CCOC2)c(C2CCN([C@@H]3COC4(C3)CN(c3nnco3)C4)CC2)c1 (single isomer, unassigned) [Example 3B, (S)-2-(1,3,4-oxadiazol-2-yl)-7-(4-(2-((S)-tetrahydrofuran-3-yl)phenyl)piperidin-1-yl)-5-oxa-2-azaspiro[3.4]octane or (S)-2-(1,3,4-oxadiazol-2-yl)-7-(4-(2-((R)-tetrahydrofuran-3-yl)phenyl)piperidin-1-yl)-5-oxa-2-azaspiro[3.4]octane] | 82 | 1.12 | 0 | > 25 | 0 | > 25 | – | – | –
Fc1ccc(OCC2C3COCC32)c(C2CCN([C@@H]3COC4(C3)CN(c3nnco3)C4)CC2)c1 (stereo partly drawn) [Example 2Z, (7S)-7-(4-(2-((3-oxabicyclo[3.1.0]hexan-6-yl)methoxy)-5-fluorophenyl)piperidin-1-yl)-2-(1,3,4-oxadiazol-2-yl)-5-oxa-2-azaspiro[3.4]octane] | – | 5.06 | – | > 25 | – | > 25 | 11 | 0 | 0
COCCOc1ccc(F)cc1C1CCN([C@@H]2COC3(C2)CN(c2ncns2)C3)CC1 [Example 5D, (S)-7-(4-(5-fluoro-2-(2-methoxyethoxy)phenyl)piperidin-1-yl)-2-(1,2,4-thiadiazol-5-yl)-5-oxa-2-azaspiro[3.4]octane] | – | 1.15 | – | > 25 | – | > 25 | 60 | 0 | 0
